# Assay results: patent publication US20240415914A1, “Water Dispersible Cannabinoid Compositions” (priority 2021, published 2024)
# Read-outs that look alike come from different tables or passages of the source.
# How the values were obtained:
# [1] = Stability of cannabinoid and Vitamin E components of Beverage 2 (AB Red) stored at 8° C. and 21-25° C., LCMSMS over 570 days; details: AB Red
# Description: The LCMSMS was calibrated for 0-50 ng/ml cannabinoids with the same resin material used in the preparation of the concentrates. At each time period, 100 μml of beverage was diluted with 10 ml of methanol and injected into the LCMSMS for analysis.
# [2] = format: physicochemical; details: for Stability in Powder Concentrate (content by LCMSMS): stored at room temperature (21-25° C.)
# Description: At each time period, 0.05 g of powder was dissolved in 10 ml-15 of ethanol, diluted to fall within the analytical range, and injected into the LCMSMS for analysis.
# [3] = Stability of cannabinoid and Vitamin E components of Beverage 1 (AB White) stored at 8° C. and 21-25° C., LCMSMS over 570 days; format: physicochemical; details: for Storage time after which slight degradation / significant losses are seen: AB White; for Stability in AB White, 8° C. (content by LCMSMS): beverage stored at 8° C.
# Description: The LCMSMS was calibrated for 0-1000 ng/ml cannabinoids with the same resin material used in the preparation of the concentrates. At each time period, 100 ml of beverage was diluted with 10 ml of methanol and injected into the LCMSMS for analysis.
structure (smiles),measurement,setting,value
"C=C(C)[C@@H]1CCC(C)=C[C@H]1c1c(O)cc(CCCCC)cc1O [CBD, cannabidiol, reference compound]",Storage time after which slight degradation / significant losses are seen,[1]; stored at 8° C.,> 420 days
same,Storage time after which slight degradation / significant losses are seen,[1]; stored at 21-25° C.,> 390 days
same,Chemical stability over the entire period (result in words),"[2]; powder concentrate, room temperature (21-25° C.), 570 days",no significant degradation
same,Stability in Powder Concentrate (content by LCMSMS),[2]; day 0,5.85 mg/g powder
same,Stability in Powder Concentrate (content by LCMSMS),[2]; day 1,5.69 mg/g powder
same,Stability in Powder Concentrate (content by LCMSMS),[2]; day 2,5.76 mg/g powder
same,Stability in Powder Concentrate (content by LCMSMS),[2]; day 3,5.81 mg/g powder
same,Stability in Powder Concentrate (content by LCMSMS),[2]; day 5,5.84 mg/g powder
same,Stability in Powder Concentrate (content by LCMSMS),[2]; day 8,5.91 mg/g powder
same,Stability in Powder Concentrate (content by LCMSMS),[2]; day 9,6.01 mg/g powder
same,Stability in Powder Concentrate (content by LCMSMS),[2]; day 10,5.69 mg/g powder
same,Stability in Powder Concentrate (content by LCMSMS),[2]; day 11,6.00 mg/g powder
same,Stability in Powder Concentrate (content by LCMSMS),[2]; day 12,5.76 mg/g powder
same,Stability in Powder Concentrate (content by LCMSMS),[2]; day 15,5.85 mg/g powder
same,Stability in Powder Concentrate (content by LCMSMS),[2]; day 16,5.97 mg/g powder
same,Stability in Powder Concentrate (content by LCMSMS),[2]; day 17,5.97 mg/g powder
same,Stability in Powder Concentrate (content by LCMSMS),[2]; day 18,6.01 mg/g powder
same,Stability in Powder Concentrate (content by LCMSMS),[2]; day 19,5.74 mg/g powder
same,Stability in Powder Concentrate (content by LCMSMS),[2]; day 22,5.84 mg/g powder
same,Stability in Powder Concentrate (content by LCMSMS),[2]; day 23,6.10 mg/g powder
same,Stability in Powder Concentrate (content by LCMSMS),[2]; day 24,5.89 mg/g powder
same,Stability in Powder Concentrate (content by LCMSMS),[2]; day 25,6.01 mg/g powder
same,Stability in Powder Concentrate (content by LCMSMS),[2]; day 26,6.00 mg/g powder
same,Stability in Powder Concentrate (content by LCMSMS),[2]; day 29,5.97 mg/g powder
same,Stability in Powder Concentrate (content by LCMSMS),[2]; day 30,5.94 mg/g powder
same,Stability in Powder Concentrate (content by LCMSMS),[2]; day 60,5.66 mg/g powder
same,Stability in Powder Concentrate (content by LCMSMS),[2]; day 90,6.00 mg/g powder
same,Stability in Powder Concentrate (content by LCMSMS),[2]; day 120,5.80 mg/g powder
same,Stability in Powder Concentrate (content by LCMSMS),[2]; day 150,5.65 mg/g powder
same,Stability in Powder Concentrate (content by LCMSMS),[2]; day 180,5.93 mg/g powder
same,Stability in Powder Concentrate (content by LCMSMS),[2]; day 210,5.83 mg/g powder
same,Stability in Powder Concentrate (content by LCMSMS),[2]; day 240,5.98 mg/g powder
same,Stability in Powder Concentrate (content by LCMSMS),[2]; day 270,5.72 mg/g powder
same,Stability in Powder Concentrate (content by LCMSMS),[2]; day 300,5.84 mg/g powder
same,Stability in Powder Concentrate (content by LCMSMS),[2]; day 330,6.01 mg/g powder
same,Stability in Powder Concentrate (content by LCMSMS),[2]; day 360,5.97 mg/g powder
same,Stability in Powder Concentrate (content by LCMSMS),[2]; day 390,5.93 mg/g powder
same,Stability in Powder Concentrate (content by LCMSMS),[2]; day 420,5.94 mg/g powder
same,Stability in Powder Concentrate (content by LCMSMS),[2]; day 450,5.65 mg/g powder
same,Stability in Powder Concentrate (content by LCMSMS),[2]; day 480,5.66 mg/g powder
same,Stability in Powder Concentrate (content by LCMSMS),[2]; day 510,6.01 mg/g powder
same,Stability in Powder Concentrate (content by LCMSMS),[2]; day 540,5.81 mg/g powder
same,Stability in Powder Concentrate (content by LCMSMS),[2]; day 570,5.85 mg/g powder
same,Storage time after which slight degradation / significant losses are seen,[3]; stored at 8° C.,> 480 days
same,Storage time after which slight degradation / significant losses are seen,[3]; stored at 21-25° C.,> 390 days
same,"Stability in AB White, 8° C. (content by LCMSMS)",[3]; day 0,28.5 µg/mL
same,"Stability in AB White, 8° C. (content by LCMSMS)",[3]; day 1,27.65 µg/mL
same,"Stability in AB White, 8° C. (content by LCMSMS)",[3]; day 2,27.67 µg/mL
same,"Stability in AB White, 8° C. (content by LCMSMS)",[3]; day 3,27.96 µg/mL
same,"Stability in AB White, 8° C. (content by LCMSMS)",[3]; day 5,28.61 µg/mL
same,"Stability in AB White, 8° C. (content by LCMSMS)",[3]; day 8,28.47 µg/mL
same,"Stability in AB White, 8° C. (content by LCMSMS)",[3]; day 9,28.44 µg/mL
same,"Stability in AB White, 8° C. (content by LCMSMS)",[3]; day 10,27.87 µg/mL
same,"Stability in AB White, 8° C. (content by LCMSMS)",[3]; day 11,28.13 µg/mL
same,"Stability in AB White, 8° C. (content by LCMSMS)",[3]; day 12,28.10 µg/mL
same,"Stability in AB White, 8° C. (content by LCMSMS)",[3]; day 15,27.99 µg/mL
same,"Stability in AB White, 8° C. (content by LCMSMS)",[3]; day 16,28.04 µg/mL
same,"Stability in AB White, 8° C. (content by LCMSMS)",[3]; day 17,27.84 µg/mL
same,"Stability in AB White, 8° C. (content by LCMSMS)",[3]; day 18,27.87 µg/mL
same,"Stability in AB White, 8° C. (content by LCMSMS)",[3]; day 19,28.36 µg/mL
same,"Stability in AB White, 8° C. (content by LCMSMS)",[3]; day 22,28.50 µg/mL
same,"Stability in AB White, 8° C. (content by LCMSMS)",[3]; day 23,27.67 µg/mL
same,"Stability in AB White, 8° C. (content by LCMSMS)",[3]; day 24,28.44 µg/mL
same,"Stability in AB White, 8° C. (content by LCMSMS)",[3]; day 25,27.65 µg/mL
same,"Stability in AB White, 8° C. (content by LCMSMS)",[3]; day 26,27.73 µg/mL
same,"Stability in AB White, 8° C. (content by LCMSMS)",[3]; day 29,28.24 µg/mL
same,"Stability in AB White, 8° C. (content by LCMSMS)",[3]; day 30,27.93 µg/mL
same,"Stability in AB White, 8° C. (content by LCMSMS)",[3]; day 60,27.73 µg/mL
same,"Stability in AB White, 8° C. (content by LCMSMS)",[3]; day 90,27.87 µg/mL
same,"Stability in AB White, 8° C. (content by LCMSMS)",[3]; day 120,27.39 µg/mL
same,"Stability in AB White, 8° C. (content by LCMSMS)",[3]; day 150,28.59 µg/mL
same,"Stability in AB White, 8° C. (content by LCMSMS)",[3]; day 180,27.59 µg/mL
same,"Stability in AB White, 8° C. (content by LCMSMS)",[3]; day 210,27.76 µg/mL
same,"Stability in AB White, 8° C. (content by LCMSMS)",[3]; day 240,27.79 µg/mL
same,"Stability in AB White, 8° C. (content by LCMSMS)",[3]; day 270,28.07 µg/mL
same,"Stability in AB White, 8° C. (content by LCMSMS)",[3]; day 300,27.96 µg/mL
same,"Stability in AB White, 8° C. (content by LCMSMS)",[3]; day 330,27.33 µg/mL
same,"Stability in AB White, 8° C. (content by LCMSMS)",[3]; day 360,27.79 µg/mL
same,"Stability in AB White, 8° C. (content by LCMSMS)",[3]; day 390,27.50 µg/mL
same,"Stability in AB White, 8° C. (content by LCMSMS)",[3]; day 420,27.50 µg/mL
same,"Stability in AB White, 8° C. (content by LCMSMS)",[3]; day 480,27.13 µg/mL
same,"Stability in AB White, 8° C. (content by LCMSMS)",[3]; day 510,26.48 µg/mL
same,"Stability in AB White, 8° C. (content by LCMSMS)",[3]; day 540,26.51 µg/mL
same,"Stability in AB White, 8° C. (content by LCMSMS)",[3]; day 570,26.22 µg/mL
